# Measured values published in ChEMBL document CHEMBL6103592, “Discovery of novel thiazole-pleuromutilin derivatives with potent antibacterial activity” (Eur J Med Chem, 2025).
# Test system: Staphylococcus aureus
# Assay: Antibacterial activity against methicillin-resistant Staphylococcus aureus ATCC 43300 assessed as inhibition of visible bacterial growth incubated for 24 hrs by CLSI based broth microdilution method
# Format: functional
row,SMILES,MIC [µg/mL]
1,C=C[C@]1(C)C[C@@H](OC(=O)CSc2nc(OC(=O)c3cccc(OC)c3)cs2)[C@]2(C)[C@H](C)CC[C@]3(CCC(=O)[C@H]32)[C@@H](C)[C@@H]1O,1
2,C=C[C@]1(C)C[C@@H](OC(=O)CSc2nc(OC(=O)c3cccc(Br)c3)cs2)[C@]2(C)[C@H](C)CC[C@]3(CCC(=O)[C@H]32)[C@@H](C)[C@@H]1O,0.5
3,CCC[C@@H]1C[C@@H](C(=O)N[C@@H]([C@H]2O[C@H](SC)[C@H](O)[C@@H](O)[C@H]2O)[C@H](C)Cl)N(C)C1 [CLINDAMYCIN],> 32
4,C=C[C@]1(C)C[C@@H](OC(=O)CSc2nc(OC(=O)CCC)cs2)[C@]2(C)[C@H](C)CC[C@]3(CCC(=O)[C@H]32)[C@@H](C)[C@@H]1O,1
5,C=C[C@]1(C)C[C@@H](OC(=O)CSc2nc(OC(=O)c3ccccc3Br)cs2)[C@]2(C)[C@H](C)CC[C@]3(CCC(=O)[C@H]32)[C@@H](C)[C@@H]1O,0.5
6,C=C[C@]1(C)C[C@@H](OC(=O)CSc2nc(OC(=O)c3ccccc3Cl)cs2)[C@]2(C)[C@H](C)CC[C@]3(CCC(=O)[C@H]32)[C@@H](C)[C@@H]1O,0.5

# Test system: Staphylococcus aureus
# Assay: Antibacterial activity against Staphylococcus aureus ATCC 25923 assessed as inhibition of visible bacterial growth incubated for 24 hrs by CLSI based broth microdilution method
# Format: functional
row,SMILES,MIC [µg/mL]
1,C=C[C@]1(C)C[C@@H](OC(=O)CSc2nc(OC(=O)c3cccc(OC)c3)cs2)[C@]2(C)[C@H](C)CC[C@]3(CCC(=O)[C@H]32)[C@@H](C)[C@@H]1O,1
2,C=C[C@]1(C)C[C@@H](OC(=O)CSc2nc(OC(=O)c3cccc(Br)c3)cs2)[C@]2(C)[C@H](C)CC[C@]3(CCC(=O)[C@H]32)[C@@H](C)[C@@H]1O,2
3,CCC[C@@H]1C[C@@H](C(=O)N[C@@H]([C@H]2O[C@H](SC)[C@H](O)[C@@H](O)[C@H]2O)[C@H](C)Cl)N(C)C1 [CLINDAMYCIN],> 32
4,C=C[C@]1(C)C[C@@H](OC(=O)CSc2nc(OC(=O)CCC)cs2)[C@]2(C)[C@H](C)CC[C@]3(CCC(=O)[C@H]32)[C@@H](C)[C@@H]1O,1
5,C=C[C@]1(C)C[C@@H](OC(=O)CSc2nc(OC(=O)c3ccccc3Br)cs2)[C@]2(C)[C@H](C)CC[C@]3(CCC(=O)[C@H]32)[C@@H](C)[C@@H]1O,2
6,C=C[C@]1(C)C[C@@H](OC(=O)CSc2nc(OC(=O)c3ccccc3Cl)cs2)[C@]2(C)[C@H](C)CC[C@]3(CCC(=O)[C@H]32)[C@@H](C)[C@@H]1O,1

# Test system: Enterococcus faecalis
# Assay: Antibacterial activity against Enterococcus faecalis assessed as inhibition of visible bacterial growth incubated for 24 hrs by CLSI based broth microdilution method
# Format: functional
row,SMILES,MIC [µg/mL]
1,C=C[C@]1(C)C[C@@H](OC(=O)CSc2nc(OC(=O)c3cccc(OC)c3)cs2)[C@]2(C)[C@H](C)CC[C@]3(CCC(=O)[C@H]32)[C@@H](C)[C@@H]1O,> 32
2,C=C[C@]1(C)C[C@@H](OC(=O)CSc2nc(OC(=O)c3cccc(Br)c3)cs2)[C@]2(C)[C@H](C)CC[C@]3(CCC(=O)[C@H]32)[C@@H](C)[C@@H]1O,> 32
3,CCC[C@@H]1C[C@@H](C(=O)N[C@@H]([C@H]2O[C@H](SC)[C@H](O)[C@@H](O)[C@H]2O)[C@H](C)Cl)N(C)C1 [CLINDAMYCIN],16
4,C=C[C@]1(C)C[C@@H](OC(=O)CSc2nc(OC(=O)CCC)cs2)[C@]2(C)[C@H](C)CC[C@]3(CCC(=O)[C@H]32)[C@@H](C)[C@@H]1O,> 32
5,C=C[C@]1(C)C[C@@H](OC(=O)CSc2nc(OC(=O)c3ccccc3Br)cs2)[C@]2(C)[C@H](C)CC[C@]3(CCC(=O)[C@H]32)[C@@H](C)[C@@H]1O,> 32
6,C=C[C@]1(C)C[C@@H](OC(=O)CSc2nc(OC(=O)c3ccccc3Cl)cs2)[C@]2(C)[C@H](C)CC[C@]3(CCC(=O)[C@H]32)[C@@H](C)[C@@H]1O,> 32

# Test system: Escherichia coli
# Assay: Antibacterial activity against Escherichia coli ATCC 25922 assessed as inhibition of visible bacterial growth incubated for 24 hrs by CLSI based broth microdilution method
# Format: functional
row,SMILES,MIC [µg/mL]
1,C=C[C@]1(C)C[C@@H](OC(=O)CSc2nc(OC(=O)c3cccc(OC)c3)cs2)[C@]2(C)[C@H](C)CC[C@]3(CCC(=O)[C@H]32)[C@@H](C)[C@@H]1O,> 32
2,C=C[C@]1(C)C[C@@H](OC(=O)CSc2nc(OC(=O)c3cccc(Br)c3)cs2)[C@]2(C)[C@H](C)CC[C@]3(CCC(=O)[C@H]32)[C@@H](C)[C@@H]1O,> 32
3,CCC[C@@H]1C[C@@H](C(=O)N[C@@H]([C@H]2O[C@H](SC)[C@H](O)[C@@H](O)[C@H]2O)[C@H](C)Cl)N(C)C1 [CLINDAMYCIN],32
4,C=C[C@]1(C)C[C@@H](OC(=O)CSc2nc(OC(=O)CCC)cs2)[C@]2(C)[C@H](C)CC[C@]3(CCC(=O)[C@H]32)[C@@H](C)[C@@H]1O,> 32
5,C=C[C@]1(C)C[C@@H](OC(=O)CSc2nc(OC(=O)c3ccccc3Br)cs2)[C@]2(C)[C@H](C)CC[C@]3(CCC(=O)[C@H]32)[C@@H](C)[C@@H]1O,> 32
6,C=C[C@]1(C)C[C@@H](OC(=O)CSc2nc(OC(=O)c3ccccc3Cl)cs2)[C@]2(C)[C@H](C)CC[C@]3(CCC(=O)[C@H]32)[C@@H](C)[C@@H]1O,> 32

# Test system: Streptococcus agalactiae
# Assay: Antibacterial activity against Streptococcus agalactiae assessed as inhibition of visible bacterial growth incubated for 24 hrs by CLSI based broth microdilution method
# Format: functional
row,SMILES,MIC [µg/mL]
1,C=C[C@]1(C)C[C@@H](OC(=O)CSc2nc(OC(=O)c3cccc(OC)c3)cs2)[C@]2(C)[C@H](C)CC[C@]3(CCC(=O)[C@H]32)[C@@H](C)[C@@H]1O,0.063
2,C=C[C@]1(C)C[C@@H](OC(=O)CSc2nc(OC(=O)c3cccc(Br)c3)cs2)[C@]2(C)[C@H](C)CC[C@]3(CCC(=O)[C@H]32)[C@@H](C)[C@@H]1O,0.063
3,CCC[C@@H]1C[C@@H](C(=O)N[C@@H]([C@H]2O[C@H](SC)[C@H](O)[C@@H](O)[C@H]2O)[C@H](C)Cl)N(C)C1 [CLINDAMYCIN],> 32
4,C=C[C@]1(C)C[C@@H](OC(=O)CSc2nc(OC(=O)CCC)cs2)[C@]2(C)[C@H](C)CC[C@]3(CCC(=O)[C@H]32)[C@@H](C)[C@@H]1O,0.125
5,C=C[C@]1(C)C[C@@H](OC(=O)CSc2nc(OC(=O)c3ccccc3Br)cs2)[C@]2(C)[C@H](C)CC[C@]3(CCC(=O)[C@H]32)[C@@H](C)[C@@H]1O,0.063
6,C=C[C@]1(C)C[C@@H](OC(=O)CSc2nc(OC(=O)c3ccccc3Cl)cs2)[C@]2(C)[C@H](C)CC[C@]3(CCC(=O)[C@H]32)[C@@H](C)[C@@H]1O,0.125

# Test system: Mycoplasma
# Assay: Antibacterial activity against Mycoplasma F3 assessed as inhibition of visible bacterial growth incubated for 24 hrs by CLSI based broth microdilution method
# Format: functional
row,SMILES,MIC [µg/mL]
1,C=C[C@]1(C)C[C@@H](OC(=O)CSc2nc(OC(=O)c3cccc(OC)c3)cs2)[C@]2(C)[C@H](C)CC[C@]3(CCC(=O)[C@H]32)[C@@H](C)[C@@H]1O,0.25
2,C=C[C@]1(C)C[C@@H](OC(=O)CSc2nc(OC(=O)c3cccc(Br)c3)cs2)[C@]2(C)[C@H](C)CC[C@]3(CCC(=O)[C@H]32)[C@@H](C)[C@@H]1O,0.25
3,CCC[C@@H]1C[C@@H](C(=O)N[C@@H]([C@H]2O[C@H](SC)[C@H](O)[C@@H](O)[C@H]2O)[C@H](C)Cl)N(C)C1 [CLINDAMYCIN],1
4,C=C[C@]1(C)C[C@@H](OC(=O)CSc2nc(OC(=O)CCC)cs2)[C@]2(C)[C@H](C)CC[C@]3(CCC(=O)[C@H]32)[C@@H](C)[C@@H]1O,0.25
5,C=C[C@]1(C)C[C@@H](OC(=O)CSc2nc(OC(=O)c3ccccc3Br)cs2)[C@]2(C)[C@H](C)CC[C@]3(CCC(=O)[C@H]32)[C@@H](C)[C@@H]1O,0.5
6,C=C[C@]1(C)C[C@@H](OC(=O)CSc2nc(OC(=O)c3ccccc3Cl)cs2)[C@]2(C)[C@H](C)CC[C@]3(CCC(=O)[C@H]32)[C@@H](C)[C@@H]1O,0.25
